Test results from US5141947A, “Fibrinolysis-enhancing agents” (Mitsubishi Kasei Corporation, priority 1984, dated 1992).

Tests used:
[1] = system: fibrinolysis of plasma by t-PA (tissue plasminogen activator); experiment: fibrinolysis of plasma aggregation effected by t-PA; 0.15 ml plasma in 0.7 ml total (Examples 2 and 3); assay type: biochemical, healthy person (human)
Description: (§1) One part by volume of 3.8% sodium citrate solution was added to 9 parts by volume of the venous blood of a healthy person and centrifuged at 3,000 rpm for 15 minutes to collect the plasma.
(§2) There was placed 0.6 ml of the plasma into a spectrophotometric microcell having a path length of 10 mm and a path width of 2 mm. After adding 0.015 ml of physiological saline containing the compound (Ia) in various concentrations, the cell was held in the cell holder of a spectrophotometer, Hitachi 220 A, which was maintained at 37° C. and incubated for 5 minutes. Into the cell, there was added 0.025 ml of a solution of 8.0 μg/ml t-PA (tissue plasminogen activator) or 3,000 international units per ml high molecular weight UK, urokinase manufactured by The Green Cross Corporation, and […] CaCl2 solution. Changes in the absorbance at 608 nm were recorded at 37° C. every one minute. Thus, the coagulation and fibrinolysis of the plasma were measured with the time lapse.
(§3) The coagulation time is defined as a time period from the time 0 at which CaCl2 solution is added to a coagulation initiation time at which the absorbance has increased to a value larger by 0.025 than the value at the time 0: i.e., delta A is 0.025. The dissolution time is defined as a time period from the coagulation initiation time to a fibrinolysis termination time at which the absorbance has decreased to a value 10% that of the maximum value.
(§4) The procedures of Example 1 were repeated except that a less amount cf plasma was used. Thus, in the same manner as Example 1, there was collected 0.15 ml of plasma to which 0.1 ml of physiological saline containing the compound (Ia) in various concentrations was added, the total volume was adjusted to 0.375 ml, the resulting mixture was incubated at 37° C. for 5 minutes, 0.025 ml of a solution of 1.6 μg/ml t-PA or 500 international units per ml high molecular weight UK and 0.3 ml of 0.025M CaCl2 solution were added, and the coagulation and fibrinolysis of the plasma were measured with the time lapse to determine the coagulation time and dissolution time.
Activities of arginine derivatives having the thrombin-inhibiting effect and the structural formula shown below on the fibrinolysis by t-PA were estimated in the same manner as Example 2.

[2] = system: thrombus in carotid artery of rabbit; experiment: in vivo thrombolysis by t-PA, rabbit carotid artery thrombus (Example 4); conditions: Compound (Ia) 1.2 mg/kg alone
Description: The carotid artery of a rabbit was exposed from the surrounding tissue under anesthesia by pentobarbital. The exposed artery was surrounded with absorbent cotton soaked with glacial acetic acid and allowed to stay for 3 hours to form thrombus by the damage done to the endorthelium. The thus formed thrombus was tested for dissolution. Immediately after removing out the cotton, physiological saline in which the substance to be tested had been dissolved was injected through the femoral vein. The infusion was continued over 2 hours. After the infusion, the arterial segment wherein the thrombus had been formed was cut out and the thrombus mass was removed out under a microscope. The thrombus was dissolved in alkali and the protein was quantitatively measured by phenol method.

[3] = system: fibrinolysis of plasma by UK (urokinase); experiment: fibrinolysis of plasma aggregation effected by UK; 0.6 ml plasma in 0.7 ml total (Example 1); assay type: biochemical, healthy person (human); conditions: for Coagulation Time / Dissolution Time: n=5, average ± S.E.M.
Description: as §1, §2
(§5) In the FIGURE, the ordinate represents the difference of absorbance (ΔA) at 608 nm and the abscissa represents the time in minutes.
(§6) The effects of the compound (Ia) on the dissolution time and the coagulation time were measured on the plasma from five healthy persons. […] Values in Tables are expressed in the average+S.E.M.
as §3

[4] = system: fibrinolysis of plasma by UK (urokinase); experiment: fibrinolysis of plasma aggregation effected by UK; 0.15 ml plasma in 0.7 ml total (Example 2); assay type: biochemical, healthy person (human)
Description: as §1, §2, §3, §4

[5] = system: fibrinolysis of plasma by t-PA (tissue plasminogen activator); experiment: fibrinolysis of plasma aggregation effected by t-PA; 0.6 ml plasma in 0.7 ml total (Example 1); assay type: biochemical, healthy person (human); conditions: for Coagulation Time / Dissolution Time: n=5, average ± S.E.M.
Description: as §1, §2, §5, §6, §3

[6] = acute toxicity, LD50, intravenous, male mice; conditions: mouse, in vivo, male mice weighing 20 g
Description: The arginine derivative of the formula (Ia) above was prepared in accordance with Example 2 described in the European Patent Application Publication No. 8746.

[7] = Table 5, 0.3 μM, control 2.9 min
[8] = Table 5, 0.3 μM, control 95.7 min

COCCN(CC(=O)O)C(=O)[C@H](CCCNC(=N)N)NS(=O)(=O)c1ccc2cc(OC)c(OC)cc2c1 [Compound 1]
Coagulation Time [1, 7]: 3.2 min
Dissolution Time [1, 8]: 55.4 min

COc1ccc2ccc(S(=O)(=O)N[C@@H](CCCNC(=N)N)C(=O)N3CCC(C)CC3C(=O)O)cc2c1 (stereo partly shown) [Compound 2]
Coagulation Time [1, 7]: 4.1 min
Dissolution Time [1, 8]: 36.5 min

CCC1CCN(C(=O)[C@H](CCCNC(=N)N)NS(=O)(=O)c2ccc3cc(OC)c(OC)cc3c2)C(C(=O)O)C1 (stereo partly shown) [Compound 3]
Coagulation Time [1, 7]: 3.2 min
Dissolution Time [1, 8]: 53.4 min

Cc1ccc2ccc(S(=O)(=O)N[C@@H](CCCNC(=N)N)C(=O)N3CCC(C)CC3C(=O)O)cc2c1 (stereo partly shown) [Compound 4]
Coagulation Time [1, 7]: 3.1 min
Dissolution Time [1, 8]: 50.5 min

CC1CNc2c(cccc2S(=O)(=O)N[C@@H](CCCNC(=N)N)C(=O)N2CC[C@@H](C)C[C@@H]2C(=O)O)C1 (stereo partly drawn) [Compound (Ia), (2R, 4R)-1-[N^2-(3-methyl-1,2,3,4-tetrahydro-8-quinolinesulfonyl)-L-arginyl]-4-methyl-2-piperidinecarboxylic acid]
thrombolytic effect [2]: no thrombolytic effect
Thrombus Protein ([2]; 2 h infusion, femoral vein, n=4, saline control 1.97 ± 0.38): 2.03 ± 0.55 mg
dissolution time, in comparison with no addition ([3]; 0.1 μM or 0.3 μM): significantly reduced
Coagulation Time ([3]; 0.1 μM): 8.8 ± 1.1 min
Dissolution Time ([3]; 0.1 μM): 28.2 ± 5.2 min
Coagulation Time ([3]; 0.3 μM): 10.2 ± 1.4 min
Dissolution Time ([3]; 0.3 μM): 24.6 ± 4.3 min
Coagulation Time ([4]; 0.01 μM): prolonged slightly
Coagulation Time ([4]; 0.01 μM, n=5): 4.9 ± 0.6 min
Dissolution Time ([4]; 0.01 μM, n=5): 63.8 ± 11.8 min
Coagulation Time ([4]; 0.03 μM, n=5): 5.5 ± 0.4 min
Dissolution Time ([4]; 0.03 μM, n=5): 35.9 ± 5.7 min
Coagulation Time ([4]; 0.1 μM, n=5): 7.4 ± 0.8 min
Dissolution Time ([4]; 0.1 μM, n=5): 23.4 ± 2.2 min
dissolution time decreased to fraction of the time without addition ([4]; 0.3 μM): about 1/4
Coagulation Time ([4]; 0.3 μM, n=5): 9.9 ± 0.8 min
Dissolution Time ([4]; 0.3 μM, n=5): 22.5 ± 1.3 min
fibrinolysis ([4]; as low as 0.01 μM): enhanced
dissolution time, in comparison with no addition ([5]; 0.1 μM or 0.3 μM): significantly reduced
Coagulation Time ([5]; 0.1 μM): 10.6 ± 2.0 min
Dissolution Time ([5]; 0.1 μM): 33.0 ± 2.0 min
Coagulation Time ([5]; 0.3 μM): 13.8 ± 2.8 min
Dissolution Time ([5]; 0.3 μM): 32.0 ± 2.8 min
Coagulation Time ([1]; 0.01 μM): prolonged slightly
Coagulation Time ([1]; 0.01 μM, n=5): 4.5 ± 0.2 min
Dissolution Time ([1]; 0.01 μM, n=5): 64.1 ± 10.2 min
Coagulation Time ([1]; 0.03 μM, n=5): 5.0 ± 0.2 min
Dissolution Time ([1]; 0.03 μM, n=5): 51.6 ± 7.7 min
Coagulation Time ([1]; 0.1 μM, n=5): 6.7 ± 0.3 min
Dissolution Time ([1]; 0.1 μM, n=5): 34.5 ± 5.2 min
dissolution time decreased to fraction of the time without addition ([1]; 0.3 μM): about 1/3
Coagulation Time ([1]; 0.3 μM, n=5): 9.0 ± 0.3 min
Dissolution Time ([1]; 0.3 μM, n=5): 26.6 ± 2.4 min
fibrinolysis ([1]; as low as 0.01 μM): enhanced
LD50 [6]: 211 mg/kg
